In this series the test system is tau aggregates in DRG neurons from P301S tau mice. The experiment in a line: Fluorescence binding to cultured DRG neurons from P301S tau transgenic mice. Format: cell-based, mouse. Particulars: for IC50: Mus musculus, DRG neuron. On the procedure:
P301S tau mice with aggregated tau in the brain also express aggregated tau in DRG neurons.[24]−[26] […] To estimate the apparent affinity of LM229 to tau aggregates directly in living neurons, we imaged live neurons after 20 min incubation with various concentrations of LM229 (Figure 4A). […] LM229 binding was specific to neurons with aggregated tau, as detected with the AT100 antibody[18],[22],[23],[26] (Figure 4D). […] Although PBB3 also bound to DRG neurons with tau aggregates at 30–100 μM, it was not possible to derive an IC50 value because of its low affinity in this assay (Supporting Information, Figure S2). […] The shift from nanomolar to micromolar affinity between binding to heparin tau fibrils and tau aggregates in P301S tau neurons may reflect the different environment and assay conditions or the different conformations that tau aggregates assume in neurons compared to heparin–tau complexes.[27]
Neurons were prepared from phenotypic end stage 5–7 month old P301S tau mice and cultured as described previously.[24] For live staining, neurons cultured for 2 days were washed in PBS and incubated with various concentrations of LM229 for 20 min at room temperature. After three washes in PBS, neurons were imaged on a Leica DMI 4000B microscope using a DFC3000 G camera and application suite 4.0.0.11706. The dead cell stain Propidium iodide (1 μg/mL) was added to ensure that only live cells were imaged. Phase contrast images were taken to show viable neurons. For fixed cell staining, neurons were fixed for 20 min at room temperature in 4% paraformaldehyde, washed in PBS, and permeabilized in PBS containing 0.3% Triton X-100. LM299 was added as described for live cells, and cells were probed with AT100 (1:1000, MN1060) followed by anti-mouse AlexaFluor568 secondary antibody. Cultures were co-stained with the nuclear dye DAPI (blue) to reveal total cells. […]
Binding to cultured neurons from P301S tau transgenic mice
DRG were incubated with the indicated concentrations of LM229 or PBB3 for 20 minutes at room temperature, washed 3 times in PBS, and imaged on a Leica DMI 4000B microscope using a Leica DFC3000 G camera and the Leica application suite 4.0.0.11706. Fluorescence intensity was measured in 10-16 neurons each from 3 independent cultures using Image J (imagej.nih.gov/ij/). Results shown are mean ± SD. Non linear least squares curve fitting was applied using http://faculty.gvsu.edu/carlsont/232lab/nonlin2.html. No Km value was […]
Figure S2: Binding of LM229 and PBB3 to DRG neurons with tau aggregates […]
(1 picture or pasted object on this page, not shown here)

Structures are written as SMILES. Like-named read-outs stand apart in the source and are kept apart here.

With `CNc1ccc(/C=C/C=C/c2nc3cc(F)c(O)cc3s2)cn1` [LM229], under “3 days after exposure”, the “Retention of fluorescence in neurons after exposure and washes” value was “still retained albeit to a lower intensity”. For the same compound, the IC50 runs as follows: (20 min, live DRG neurons, 20 min incubation, read-out: IC50, apparent affinity to tau aggregates in live neurons) 2700 ± 700 nM; (fixed DRG neurons, figure legend value, read-out: IC50, fixed neurons (Figure 4B)) 1670 ± 280 nM; (fixed, permeabilized DRG neurons, read-out: IC50, fixed and permeabilized neurons) 1700 ± 300 nM; (live DRG neurons, figure legend value, read-out: IC50, live neurons (Figure 4B)) 2970 ± 730 nM. Further, the Cell permeability entry (live vs fixed/permeabilized DRG neurons) was “highly cell permeable”.

Values taken from publication PMC8176454, “Synthesis and Assessment of Novel Probes for Imaging Tau Pathology in Transgenic Mouse and Rat Models” (ACS Chemical Neuroscience, 2021).
